Source: ChEMBL document CHEMBL1126769, “Synthesis and kappa-opioid antagonist selectivity of a norbinaltorphimine congener. Identification of the address moiety required for kappa-antagonist activity” (J Med Chem, 1993)

Assays:
[1] = target: Opioid receptors; delta & kappa (Homo sapiens) (UniProt P41145+P41143); assay: Selectivity ratio between kappa-opioid receptor to delta-opioid receptor; type: protein assay
Mu-type opioid receptor = Mu-type opioid receptor (Cavia porcellus, UniProt P97266); assay: Inhibitory activity against mu-opioid receptor in guinea pig ileum longitudinal muscle using morphine; type: tissue-based
Mu-type opioid receptor, sequence (P97266 whole entry): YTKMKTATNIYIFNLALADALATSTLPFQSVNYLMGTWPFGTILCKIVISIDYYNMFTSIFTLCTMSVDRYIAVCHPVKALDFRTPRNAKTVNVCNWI

[2] = target: Delta-type opioid receptor (Mus musculus, UniProt P32300); assay: Inhibitory activity against delta-opioid receptor in mouse vas deferens preparation using DADLE
Delta-type opioid receptor, sequence (P32300 whole entry): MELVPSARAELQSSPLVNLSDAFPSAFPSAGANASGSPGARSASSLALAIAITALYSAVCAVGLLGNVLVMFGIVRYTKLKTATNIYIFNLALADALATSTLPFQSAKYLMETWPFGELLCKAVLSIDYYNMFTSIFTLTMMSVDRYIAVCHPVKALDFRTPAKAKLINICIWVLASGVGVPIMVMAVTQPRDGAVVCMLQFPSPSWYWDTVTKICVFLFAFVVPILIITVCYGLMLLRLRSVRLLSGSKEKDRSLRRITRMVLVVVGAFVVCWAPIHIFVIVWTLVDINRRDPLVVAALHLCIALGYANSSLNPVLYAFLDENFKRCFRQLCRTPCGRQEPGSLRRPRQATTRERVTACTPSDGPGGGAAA

[3] = target: Opioid receptors; mu & kappa (Homo sapiens) (UniProt P41145+P35372); assay: Selectivity ratio between kappa-opioid receptor to mu-opioid receptor; type: protein assay
Opioid receptors; mu & kappa (Homo sapiens), sequence (P35372 whole entry, looked up): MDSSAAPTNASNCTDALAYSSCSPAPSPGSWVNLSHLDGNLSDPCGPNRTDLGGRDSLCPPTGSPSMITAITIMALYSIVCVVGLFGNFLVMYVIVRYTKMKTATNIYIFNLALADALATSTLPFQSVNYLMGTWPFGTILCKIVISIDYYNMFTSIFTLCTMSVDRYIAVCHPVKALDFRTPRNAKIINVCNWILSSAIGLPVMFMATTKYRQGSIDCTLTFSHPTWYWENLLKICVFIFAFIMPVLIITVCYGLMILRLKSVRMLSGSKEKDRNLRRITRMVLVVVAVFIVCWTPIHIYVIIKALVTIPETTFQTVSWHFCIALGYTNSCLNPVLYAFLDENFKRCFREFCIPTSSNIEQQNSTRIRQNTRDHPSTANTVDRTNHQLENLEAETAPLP
Opioid receptors; mu & kappa (Homo sapiens), sequence (P41145 whole entry, looked up): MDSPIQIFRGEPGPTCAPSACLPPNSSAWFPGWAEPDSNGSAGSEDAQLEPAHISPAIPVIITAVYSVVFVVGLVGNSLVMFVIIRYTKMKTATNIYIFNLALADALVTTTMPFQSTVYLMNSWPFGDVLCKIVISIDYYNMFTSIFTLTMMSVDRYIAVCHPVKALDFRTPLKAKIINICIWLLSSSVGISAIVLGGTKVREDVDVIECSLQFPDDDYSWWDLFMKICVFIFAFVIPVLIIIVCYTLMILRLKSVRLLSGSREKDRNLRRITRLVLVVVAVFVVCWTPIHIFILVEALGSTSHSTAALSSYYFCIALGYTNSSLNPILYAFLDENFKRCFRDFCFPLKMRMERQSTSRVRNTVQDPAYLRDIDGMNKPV

[4] = target: Kappa-type opioid receptor (Cavia porcellus, UniProt P41144); assay: Inhibitory activity against kappa-opioid receptor in guinea pig ileum longitudinal muscle using ethylketazocine; type: tissue-based
Kappa-type opioid receptor, sequence (P41144 whole entry): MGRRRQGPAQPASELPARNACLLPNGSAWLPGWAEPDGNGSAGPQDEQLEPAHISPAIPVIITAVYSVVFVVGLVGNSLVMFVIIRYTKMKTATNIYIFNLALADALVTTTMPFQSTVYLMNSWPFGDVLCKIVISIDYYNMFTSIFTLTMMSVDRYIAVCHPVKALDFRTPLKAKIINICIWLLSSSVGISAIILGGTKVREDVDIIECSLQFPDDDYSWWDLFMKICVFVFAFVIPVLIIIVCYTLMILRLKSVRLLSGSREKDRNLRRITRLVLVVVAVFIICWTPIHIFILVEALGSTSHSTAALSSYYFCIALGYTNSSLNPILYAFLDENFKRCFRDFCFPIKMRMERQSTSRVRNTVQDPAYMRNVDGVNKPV

Opioid receptors; delta & kappa (Homo sapiens), sequence (P41143 whole entry, looked up): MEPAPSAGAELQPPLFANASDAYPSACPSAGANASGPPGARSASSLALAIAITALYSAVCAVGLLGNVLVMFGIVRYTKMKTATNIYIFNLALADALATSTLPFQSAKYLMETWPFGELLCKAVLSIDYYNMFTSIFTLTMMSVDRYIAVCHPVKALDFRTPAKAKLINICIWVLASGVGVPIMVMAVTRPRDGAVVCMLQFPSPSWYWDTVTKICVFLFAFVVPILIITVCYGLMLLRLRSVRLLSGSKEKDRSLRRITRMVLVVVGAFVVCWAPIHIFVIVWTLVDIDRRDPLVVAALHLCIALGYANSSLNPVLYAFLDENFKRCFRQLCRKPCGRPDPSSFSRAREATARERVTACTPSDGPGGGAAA
Opioid receptors; delta & kappa (Homo sapiens), sequence (P41145 whole entry, looked up): as the sequence (P41145 whole entry, looked up) above

SMILES	Ratio [1]	IC50 (Mu-type opioid receptor)	IC50 [2]	Ratio [3]	IC50 [4]
Cn1c2c(c3c1[C@@H]1Oc4c(O)ccc5c4[C@@]14CCN(CC1CC1)[C@H](C5)[C@]4(O)C3)C[C@H]1CN(C(=O)OCc3ccccc3)CC[C@@H]1C2	0.2	1.7 nM	9.2 nM	0.9	1.6 nM
Cn1c2c(c3c1[C@@H]1Oc4c(O)ccc5c4[C@@]14CCN(CC1CC1)[C@H](C5)[C@]4(O)C3)C[C@H]1CNCC[C@@H]1C2	36	1 nM	1.1 nM	40	40 nM
Oc1ccc2c3c1O[C@H]1c4[nH]c5c(c4C[C@@]4(O)[C@@H](C2)N(CC2CC2)CC[C@]314)C[C@@]1(O)[C@H]2Cc3ccc(O)c4c3[C@@]1(CCN2CC1CC1)[C@H]5O4 [NORBINALTORPHIMINE]	17	8.3 nM	–	22	181 nM
